Experimental data reported in patent US7998978B2 (Pfizer Inc., priority 2006, dated 2011).

Target: T1, JNK1α1 (Homo sapiens, UniProt P45983)
T1 construct: catalytic domain containing amino acids 1-364 and N-terminal hexahistidine tag; hexahistidine (His6) (N); made in house; host or cells: E. coli BL21 (DE3)
Assay: Coupled spectrophotometric (PK/LDH) JNK1α1 assay: % inhibition and Ki determination
Type: biochemical
Conditions: @1 uM; read-out: % Inhibition JNK-1
Summary of the method: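 Initial rates were taken from the absorbance decrease at 340 nm at 30° C. Ki was fitted with a tight-binding model over 11 concentrations (top 100 μM); single-point inhibition was tested at 1 or 10 μM.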

T1 sequence (P45983 1-364): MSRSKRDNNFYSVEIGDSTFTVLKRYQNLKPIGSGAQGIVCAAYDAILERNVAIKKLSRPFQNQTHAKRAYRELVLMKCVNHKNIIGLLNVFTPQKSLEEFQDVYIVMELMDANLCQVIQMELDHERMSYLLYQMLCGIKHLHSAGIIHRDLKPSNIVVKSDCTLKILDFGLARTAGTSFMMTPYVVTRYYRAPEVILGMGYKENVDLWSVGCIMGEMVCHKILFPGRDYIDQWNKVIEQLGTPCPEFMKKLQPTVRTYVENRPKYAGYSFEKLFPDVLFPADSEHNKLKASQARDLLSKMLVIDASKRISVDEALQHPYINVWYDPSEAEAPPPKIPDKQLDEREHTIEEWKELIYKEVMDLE

Row | Structure (SMILES) | inhibition at 1 µM [%]
1 | CO[C@H]1CCCC[C@@H]1Oc1ccc2cnc(N[C@H]3CC[C@H](O)CC3)nc2c1 [Example 291, trans-4-[(7-{[(1S,2S)-2-methoxycyclohexyl]oxy}quinazolin-2-yl)amino]cyclohexanol] | 37
2 | CNC(=O)c1ccc2c(c1)CCO[C@H]2CCOc1ccc2cnc(N[C@H]3CC[C@H](O)CC3)nc2c1 [Example 292, (1S)-1-[2-({2-[(trans-4-hydroxycyclohexyl)amino]quinazolin-7-yl}oxy)ethyl]-N-methyl-3,4-dihydro-1H-isochromene-6-carboxamide] | 54
3 | O[C@H]1CC[C@H](Nc2ncc3ccc(OC4CCN(c5cccnn5)CC4)cc3n2)CC1 [Example 293, trans-4-({7-[(1-pyridazin 3-ylpiperidin-4-yl)oxy]quinazolin-2-yl}amino)cyclohexanol] | 52
4 | O[C@H]1CC[C@H](Nc2ncc3ccc(OC[C@H]4CCCN4Cc4ccccc4)cc3n2)CC1 [Example 294, trans-4-[(7-{[(2R)-1-benzylpyrrolidin-2-yl]methoxy}quinazolin-2-yl)amino]cyclohexanol] | 24
5 | Cc1noc(C)c1COc1ccc2cnc(N[C@H]3CC[C@H](O)CC3)nc2c1 [Example 295, trans-4-({7-[(3,5-dimethylisoxazol-4-yl)methoxy]quinazolin-2-yl}amino)cyclohexanol] | 71
6 | C[C@@H]([C@H](Oc1ccc2cnc(N[C@H]3CC[C@H](O)CC3)nc2c1)c1ccccc1)N(C)C [Example 296, trans-4-[(7-{[(1R,2S)-2-(dimethylamino)-1-phenylpropyl]oxy}quinazolin-2-yl)amino]cyclohexanol] | 14
7 | O[C@H]1CC[C@H](Nc2ncc3ccc(OCc4ccccc4CN4CCCC4)cc3n2)CC1 [Example 297, trans-4-[(7-{[2-(pyrrolidin-1-ylmethyl)benzyl]oxy}quinazolin-2-yl)amino]cyclohexanol] | 28
8 | O[C@H]1CC[C@H](Nc2ncc3ccc(OC(CN4CCOCC4)c4ccccc4)cc3n2)CC1 (stereo partly drawn) [Example 298, trans-4-{[7-(2-morpholin-4-yl-1-phenylethoxy)quinazolin-2-yl]amino}cyclohexanol] | 18
9 | CCc1ccc(C)nc1NC(=O)c1cccc2cnc(N[C@H]3CC[C@H](O)CC3)nc12 [Example 314, N-(3-ethyl-6-methylpyridin-2-yl)-2-[(trans-4-hydroxycyclohexyl)amino]quinazoline-8-carboxamide] | 11
10 | COc1ncccc1NC(=O)c1cccc2cnc(N[C@H]3CC[C@H](O)CC3)nc12 [Example 316, 2-[(trans-4-hydroxycyclohexyl)amino]-N-(2-methoxypyridin-3-yl)quinazoline-8-carboxamide] | 18
11 | Cn1nc(-c2ccncc2)cc1NC(=O)c1cccc2cnc(N[C@H]3CC[C@H](O)CC3)nc12 [Example 317, 2-[(trans-4-hydroxycyclohexyl)amino]-N-(1-methyl-3-pyridin-4-yl-1H-pyrazol-5-yl)quinazoline-8-carboxamide] | 31
12 | Cc1nn(C)c(C)c1NC(=O)c1cccc2cnc(N[C@H]3CC[C@H](O)CC3)nc12 [Example 318, 2-[(trans-4-hydroxycyclohexyl)amino]-N-(1,3,5-trimethyl-1H-pyrazol-4-yl)quinazoline-8-carboxamide] | 37
13 | CN(C)c1ncccc1NC(=O)c1cccc2cnc(N[C@H]3CC[C@H](O)CC3)nc12 [Example 319, N-[2-(dimethylamino)pyridin-3-yl]-2-[(trans-4-hydroxycyclohexyl)amino]quinazoline-8-carboxamide] | 27
14 | CCn1ncnc1NC(=O)c1cccc2cnc(N[C@H]3CC[C@H](O)CC3)nc12 [Example 320, N-(1-ethyl-1H-1,2,4-triazol-5-yl)-2-[(trans-4-hydroxycyclohexyl)amino]quinazoline-8-carboxamide] | 19
15 | CC(C)c1ncc(NC(=O)c2cccc3cnc(N[C@H]4CC[C@H](O)CC4)nc23)cn1 [Example 321, 2-[(trans-4-hydroxycyclohexyl)amino]-N-(2-isopropylpyrimidin-5-yl)quinazoline-8-carboxamide] | 39
16 | Cc1cc(NC(=O)c2cccc3cnc(N[C@H]4CC[C@H](O)CC4)nc23)nc(C)n1 [Example 322, N-(2,6-dimethylpyrimidin-4-yl)-2-[(trans-4-hydroxycyclohexyl)amino]quinazoline-8-carboxamide] | 18
17 | Cc1nnc(NC(=O)c2cccc3cnc(N[C@H]4CC[C@H](O)CC4)nc23)o1 [Example 323, 2-[(trans-4-hydroxycyclohexyl)amino]-N-(5-methyl-1,3,4-oxadiazol-2-yl)quinazoline-8-carboxamide] | 42
18 | Cc1cc(NC(=O)c2cccc3cnc(N[C@H]4CC[C@H](O)CC4)nc23)n(-c2ccccn2)n1 [Example 325, 2-[(trans-4-hydroxycyclohexyl)amino]-N-(3-methyl-1-pyridin-2-yl-1H-pyrazol-5-yl)quinazoline-8-carboxamide] | 9

Same assay, conditions: @10 uM; read-out: % Inhibition JNK-1

Row | Structure (SMILES) | inhibition at 10 µM [%]
19 | O=C(Nc1ccnn1Cc1ccccc1)c1cccc2cnc(N[C@H]3CC[C@H](O)CC3)nc12 [Example 311, N-(1-benzyl-1H-pyrazol-5-yl)-2-[(trans-4-hydroxycyclohexyl)amino]quinazoline-8-carboxamide] | 36
20 | Cc1cc(NC(=O)c2cccc3cnc(N[C@H]4CC[C@H](O)CC4)nc23)n(C(C)C)n1 [Example 312, 2-[(trans-4-hydroxycyclohexyl)amino]-N-(1-isopropyl-3-methyl-1H-pyrazol-5-yl)quinazoline-8-carboxamide] | 76
21 | Cc1cc(C)nc(NC(=O)c2cccc3cnc(N[C@H]4CC[C@H](O)CC4)nc23)n1 [Example 313, N-(4,6-dimethylpyrimidin-2-yl)-2-[(trans-4-hydroxycyclohexyl)amino]quinazoline-8-carboxamide] | 71
22 | O=C(Nc1nccc2cccnc12)c1cccc2cnc(N[C@H]3CC[C@H](O)CC3)nc12 [Example 315, 2-[(trans-4-hydroxycyclohexyl)amino]-N-1,7-naphthyridin-8-ylquinazoline-8-carboxamide] | 52
23 | O=C(Nc1cccnc1N1CCOCC1)c1cccc2cnc(N[C@H]3CC[C@H](O)CC3)nc12 [Example 324, 2-[(trans-4-hydroxycyclohexyl)amino]-N-(2-morpholin-4-ylpyridin-3-yl)quinazoline-8-carboxamide] | 26

Same assay, conditions: JNK-1

Row | Structure (SMILES) | Ki [nM]
24 | O=C(NC(CO)c1ccccc1)c1ccc2cnc(N[C@H]3CC[C@H](O)CC3)nc2c1 (stereo partly drawn) [Example 326, 2-{(trans-4-hydroxycyclohexyl)amino]-N-(2-hydroxy-1-phenylethyl)quinazoline-7-carboxamide] | 193
25 | O=C(NCC1(O)CCCCC1)c1ccc2cnc(N[C@H]3CC[C@H](O)CC3)nc2c1 [Example 327, 2-[(trans-4-hydroxycyclohexyl)amino]-N-[(1-hydroxycyclohexyl)methyl]quinazoline-7-carboxamide] | 254
26 | O=C(N[C@H]1CC[C@H](O)CC1)c1ccc2cnc(N[C@H]3CC[C@H](O)CC3)nc2c1 [Example 328, N-(trans-4-hydroxycyclohexyl)2[(trans-4-hydroxycyclohexyl)amino]quinazoline-7-carboxamide] | 257
